Experimental data from the NIST ThermoML archive (doi:10.1016/j.fluid.2012.06.031).
Numbers after ± are expanded uncertainties.

Key:
[1] = 298.15 K; 101.33 kPa; Liquid; Pycnometric method
[2] = refractive index (Na D-line) (dimensionless); settings: 298.15 K; 101.33 kPa; Liquid; Standard Abbe refractometry
[3] = refractive index (Na D-line) (dimensionless); xn = mol fraction of the nth substance listed; settings: 298.15 K, 101 kPa, Liquid, Standard Abbe refractometry
[4] = excess molar enthalpy (molar enthalpy of mixing); xn = mol fraction of the nth substance listed; settings: 298.15 K, 101 kPa, Liquid, solution calorimetry
[5] = xn = mol fraction of the nth substance listed; settings: 298.15 K, 101 kPa, Liquid, Pycnometric method

CC(C)CC(C)(C)C [2,2,4-trimethylpentane]
Settings	mass density [kg/m3]	refractive index
[1]	687.9 ± 0.56	–
[2]	–	1.3889 ± 0.0007

CC(C)CC(C)(C)C [2,2,4-trimethylpentane] + CCCCO
Settings	excess molar enthalpy, [4] [kJ/mol]	mass density, [5] [kg/m3]	refractive index, [3]
x2 = 0.05	0.396 ± 0.0041	–	–
x2 = 0.0501	–	690.95 ± 0.56	1.38897 ± 0.00046
x2 = 0.1	0.5023 ± 0.0048	–	–
x2 = 0.1001	–	694.28 ± 0.56	1.38909 ± 0.00045
x2 = 0.1501	–	697.81 ± 0.56	1.38925 ± 0.00045
x2 = 0.1502	0.5697 ± 0.0052	–	–
x2 = 0.2	0.5874 ± 0.0053	701.56 ± 0.56	1.38946 ± 0.00045
x2 = 0.2995	0.6228 ± 0.0056	–	–
x2 = 0.3001	–	709.77 ± 0.57	1.38999 ± 0.00044
x2 = 0.3999	–	718.98 ± 0.57	1.39067 ± 0.00044
x2 = 0.4	0.6287 ± 0.0056	–	–
x2 = 0.5	–	729.4 ± 0.57	1.39149 ± 0.00043
x2 = 0.5001	0.5938 ± 0.0054	–	–
x2 = 0.5999	–	741.16 ± 0.58	1.39244 ± 0.00043
x2 = 0.6002	0.5157 ± 0.0048	–	–
x2 = 0.6999	–	754.51 ± 0.59	1.3935 ± 0.00042
x2 = 0.7	0.405 ± 0.0041	–	–
x2 = 0.8	0.287 ± 0.0035	769.68 ± 0.59	1.39466 ± 0.00042
x2 = 0.8499	0.223 ± 0.0031	–	–
x2 = 0.85	–	778.03 ± 0.6	1.39527 ± 0.00042
x2 = 0.9	0.15 ± 0.0028	786.94 ± 0.6	1.3959 ± 0.00042
x2 = 0.9499	0.0788 ± 0.0025	–	–
x2 = 0.95	–	796.46 ± 0.61	1.39654 ± 0.00042

CC(C)CC(C)(C)C [2,2,4-trimethylpentane] + CCCO
Settings	excess molar enthalpy, [4] [kJ/mol]	mass density, [5] [kg/m3]	refractive index, [3]
x2 = 0.0502	–	689.82 ± 0.56	1.3885 ± 0.00045
x2 = 0.0516	0.408 ± 0.0042	–	–
x2 = 0.1	0.525 ± 0.0049	–	–
x2 = 0.1002	–	692.19 ± 0.56	1.38816 ± 0.00045
x2 = 0.15	0.5598 ± 0.0051	–	–
x2 = 0.1504	–	694.9 ± 0.56	1.38785 ± 0.00045
x2 = 0.1999	–	697.87 ± 0.56	1.38759 ± 0.00044
x2 = 0.2001	0.6094 ± 0.0055	–	–
x2 = 0.3	–	704.65 ± 0.56	1.38712 ± 0.00044
x2 = 0.3001	0.6544 ± 0.0058	–	–
x2 = 0.3999	–	712.46 ± 0.56	1.38669 ± 0.00043
x2 = 0.4001	0.6533 ± 0.0058	–	–
x2 = 0.5	–	721.44 ± 0.56	1.38627 ± 0.00043
x2 = 0.5002	0.6025 ± 0.0054	–	–
x2 = 0.6001	0.5251 ± 0.0049	731.85 ± 0.57	1.3858 ± 0.00042
x2 = 0.7	–	744.14 ± 0.58	1.38526 ± 0.00042
x2 = 0.7048	0.406 ± 0.0041	–	–
x2 = 0.7999	–	758.95 ± 0.58	1.38462 ± 0.00042
x2 = 0.8	0.297 ± 0.0035	–	–
x2 = 0.85	0.235 ± 0.0032	767.56 ± 0.59	1.38426 ± 0.00042
x2 = 0.8998	0.162 ± 0.0028	–	–
x2 = 0.9	–	777.1 ± 0.6	1.38387 ± 0.00041
x2 = 0.9499	0.0854 ± 0.0025	–	–
x2 = 0.9501	–	787.71 ± 0.6	1.38345 ± 0.00041

CCCCO [butan-1-ol]
Settings	mass density [kg/m3]	refractive index
[1]	805.8 ± 0.62	–
[2]	–	1.3974 ± 0.0007

CCCCCO [pentan-1-ol]
Settings	mass density [kg/m3]	refractive index
[1]	810.8 ± 0.66	–
[2]	–	1.4078 ± 0.0007

CCCCCO [pentan-1-ol] + CC(C)CC(C)(C)C
Settings	excess molar enthalpy, [4] [kJ/mol]	mass density, [5] [kg/m3]	refractive index, [3]
x1 = 0.05	0.376 ± 0.004	–	–
x1 = 0.0501	–	691.14 ± 0.56	1.38936 ± 0.00046
x1 = 0.0998	0.4747 ± 0.0046	–	–
x1 = 0.1	–	695.2 ± 0.57	1.38993 ± 0.00046
x1 = 0.1499	–	699.5 ± 0.57	1.39059 ± 0.00046
x1 = 0.15	0.5313 ± 0.0049	–	–
x1 = 0.1996	0.5546 ± 0.0051	–	–
x1 = 0.2017	–	704.19 ± 0.57	1.39135 ± 0.00046
x1 = 0.2997	0.6019 ± 0.0054	–	–
x1 = 0.3001	–	713.84 ± 0.58	1.39297 ± 0.00046
x1 = 0.3999	0.5912 ± 0.0054	–	–
x1 = 0.4	–	724.6 ± 0.59	1.39478 ± 0.00046
x1 = 0.4998	0.5511 ± 0.0051	–	–
x1 = 0.5001	–	736.36 ± 0.6	1.3967 ± 0.00046
x1 = 0.5999	0.4561 ± 0.0045	–	–
x1 = 0.6001	–	749.12 ± 0.61	1.3987 ± 0.00046
x1 = 0.7	0.381 ± 0.004	762.91 ± 0.62	1.40077 ± 0.00046
x1 = 0.7999	–	777.72 ± 0.63	1.40293 ± 0.00046
x1 = 0.8	0.264 ± 0.0033	–	–
x1 = 0.85	0.197 ± 0.003	785.54 ± 0.64	1.40407 ± 0.00046
x1 = 0.9	0.134 ± 0.0027	793.63 ± 0.65	1.40525 ± 0.00046
x1 = 0.95	0.0627 ± 0.0024	801.98 ± 0.65	1.40649 ± 0.00046

CCCO [propan-1-ol]
Settings	mass density [kg/m3]	refractive index
[1]	799.6 ± 0.61	–
[2]	–	1.3832 ± 0.0007
